The supplement of paper PMC11061612

Assays:
[1] = test system: KP-4 (Pancreatic Carcinoma); test: Bliss excess, mean over the matrix (fraction); higher = more synergy
Summary of the method: (§1)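 Cell lines grown in DMEM/F12 or RPMI with 10% FBS were plated in 1536-well plates and held 24 hours at 37°C, 5% CO2 before 72 hours of exposure to two-drug dose matrices, with DMSO typically at 0.2%. CellTiter-Glo 2.0 luminescence gave viability, which was converted to inhibition. Vehicle wells were set to 0 and blank wells to 1. Combination Emax is the second-highest inhibition in the matrix, and Bliss excess is the observed combination effect minus the expected EA + EB − EA·EB, where EA and EB are the single-agent effects.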

[2] = test system: BxPC-3 (Pancreatic Carcinoma); test: combination Emax (second highest fraction inhibited in the dose matrix, 72 h); higher = more inhibition; extreme values may be limits of the assay
Summary of the method: as §1

[3] = test system: COR-L88 (Small Cell Lung Carcinoma); test: as above
Summary of the method: as §1

[4] = test system: CPC-N (Small Cell Lung Carcinoma); test: as above
Summary of the method: as §1

[5] = test system: HPAF-II (Pancreatic Carcinoma); test: as above
Summary of the method: as §1

[6] = test system: IA-LM (Non-Small Cell Lung Carcinoma); test: as above
Summary of the method: as §1

KALS-1 (Glioblastoma) = test: as above
Summary of the method: as §1

[7] = test system: MS-1 (Small Cell Lung Carcinoma); test: as above
Summary of the method: as §1

[8] = test system: NCI-H3118 (Head and Neck Carcinoma); test: as above
Summary of the method: as §1

SK-N-SH (Neuroblastoma) = test: as above
Summary of the method: as §1

[9] = test system: SNU-423 (Hepatocellular Carcinoma); test: as above
Summary of the method: as §1

[10] = test system: T84 (Colorectal Carcinoma); test: as above
Summary of the method: as §1

[11] = test system: ZR-75-30 (Breast Carcinoma); test: as above
Summary of the method: as §1

[12] = test system: KP-4 (Pancreatic Carcinoma); test: as above
Summary of the method: as §1
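For Bliss excess, mean over the matrix in this document: after 72 h of two-drug dosing.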

| Compound | Bliss excess [1] | combination Emax [2] | combination Emax [3] | combination Emax [4] | combination Emax [5] | combination Emax [6] | combination Emax (KALS-1 (Glioblastoma)) | combination Emax [7] | combination Emax [8] | combination Emax (SK-N-SH (Neuroblastoma)) | combination Emax [9] | combination Emax [10] | combination Emax [11] | combination Emax [12] |
| --- | --- | --- | --- | --- | --- | --- | --- | --- | --- | --- | --- | --- | --- | --- |
| C=CCn1c(=O)c2cnc(Nc3ccc(N4CCN(C)CC4)cc3)nc2n1-c1cccc(C(C)(C)O)n1 [AZD1775] + CCc1c2c(nc3ccc(O)cc13)-c1cc3c(c(=O)n1C2)COC(=O)[C@]3(O)CC [SN-38] (first compound max 1 µM, partner max 0.3 µM) | 0.0054 | 0.562 | 0.671 | 0.923 | 0.597 | 0.67 | 0.965 | 0.86 | 0.9 | 0.957 | 0.598 | 0.867 | 0.137 |  |
| C=CCn1c(=O)c2cnc(Nc3ccc(N4CCN(C)CC4)cc3)nc2n1-c1cccc(C(C)(C)O)n1 [AZD1775] + Nc1ccn([C@@H]2O[C@H](CO)[C@@H](O)C2(F)F)c(=O)n1 [Gemcitabine] (first compound max 1 µM, partner max 0.3 µM) |  | 0.554 | 0.65 | 0.897 | 0.551 | 0.287 | 0.929 | 0.838 | 0.872 | 0.879 | 0.655 | 0.85 | 0.24 |  |
| CN(CCO)CC[C@H](CSc1ccccc1)Nc1ccc(S(=O)(=O)NC(=O)c2ccc(N3CCC([C@@H](O)c4ccccc4-c4ccc(Cl)cc4)CC3)cc2)cc1S(=O)(=O)C(F)(F)F [AZD4320] + CC(=O)O[C@H]1C(=O)[C@@]2(C)[C@H]([C@H](OC(=O)c3ccccc3)[C@]3(O)C[C@H](OC(=O)[C@H](O)[C@@H](NC(=O)c4ccccc4)c4ccccc4)C(C)=C1C3(C)C)[C@]1(OC(C)=O)CO[C@@H]1C[C@@H]2O [Paclitaxel] (first compound max 1 µM, 7x7, partner max 3 µM) | -0.0097 | 0.928 | 0.997 | 1 | 0.955 | 0.833 | 0.984 | 0.971 | 0.978 | 0.989 | 0.959 | 0.726 | 0.326 |  |
| CN(CCO)CC[C@H](CSc1ccccc1)Nc1ccc(S(=O)(=O)NC(=O)c2ccc(N3CCC([C@@H](O)c4ccccc4-c4ccc(Cl)cc4)CC3)cc2)cc1S(=O)(=O)C(F)(F)F [AZD4320] + CS(=O)(=O)CCNCc1ccc(-c2ccc3ncnc(Nc4ccc(OCc5cccc(F)c5)c(Cl)c4)c3c2)o1 [Lapatinib] (first compound max 1 µM, 7x7, partner max 10 µM) | -0.0251 | 0.486 | 0.986 | 0.977 | 0.984 | 0.539 | 0.422 | 0.971 | 0.561 | 0.97 | 0.91 | 0.886 | 0.957 | 0.186 |
| CN(CCO)CC[C@H](CSc1ccccc1)Nc1ccc(S(=O)(=O)NC(=O)c2ccc(N3CCC([C@@H](O)c4ccccc4-c4ccc(Cl)cc4)CC3)cc2)cc1S(=O)(=O)C(F)(F)F [AZD4320] + Nc1ccn([C@@H]2O[C@H](CO)[C@@H](O)C2(F)F)c(=O)n1 [Gemcitabine] (first compound max 1 µM, 7x7, partner max 0.3 µM) |  | 0.577 | 0.947 | 0.962 | 0.759 | 0.594 | 0.595 | 0.78 | 0.752 | 0.968 | 0.605 | 0.508 | 0.216 |  |
| Cc1c2c(nn1C)CSCc1cc(n(C)n1)CSc1cc(c3ccccc3c1)OCCCc1c(C(=O)O)n(C)c3c-2c(Cl)ccc13 [AZD5991] + CC(=O)O[C@H]1C(=O)[C@@]2(C)[C@H]([C@H](OC(=O)c3ccccc3)[C@]3(O)C[C@H](OC(=O)[C@H](O)[C@@H](NC(=O)c4ccccc4)c4ccccc4)C(C)=C1C3(C)C)[C@]1(OC(C)=O)CO[C@@H]1C[C@@H]2O [Paclitaxel] (first compound max 1 µM, 7x7, partner max 3 µM) | -0.0288 | 0.686 | 0.515 | 0.773 | 0.53 | 0.199 | 0.951 | 0.867 | 0.973 | 0.926 | 0.672 | 0.701 | 0.441 | 0.965 |
| Cc1c2c(nn1C)CSCc1cc(n(C)n1)CSc1cc(c3ccccc3c1)OCCCc1c(C(=O)O)n(C)c3c-2c(Cl)ccc13 [AZD5991] + CS(=O)(=O)CCNCc1ccc(-c2ccc3ncnc(Nc4ccc(OCc5cccc(F)c5)c(Cl)c4)c3c2)o1 [Lapatinib] (first compound max 1 µM, 7x7, partner max 10 µM) | -0.0211 | 0.483 | 0.305 | 0.327 | 0.213 | 0.297 | 0.332 | 0.535 | 0.723 | 0.442 | 0.289 | 0.469 | 0.974 | 0.15 |
| Cc1c2c(nn1C)CSCc1cc(n(C)n1)CSc1cc(c3ccccc3c1)OCCCc1c(C(=O)O)n(C)c3c-2c(Cl)ccc13 [AZD5991] + Nc1ccn([C@@H]2O[C@H](CO)[C@@H](O)C2(F)F)c(=O)n1 [Gemcitabine] (first compound max 1 µM, 7x7, partner max 0.3 µM) |  | 0.47 | 0.485 | 0.754 | 0.268 | 0.261 | 0.542 | 0.722 | 0.818 | 0.757 | 0.43 | 0.521 | 0.36 |  |
| C[C@@H]1COCCN1c1cc(C2([S@](C)(=N)=O)CC2)nc(-c2ccnc3[nH]ccc23)n1 [AZD6738] + C1CC(C1)(C(=O)[O-])C(=O)[O-].N.N.[Pt+2] [Carboplatin] (first compound max 10 µM, 7x7, partner max 10 µM) | -0.0351 | 0.349 | 0.299 | 0.8 | 0.36 | 0.171 | 0.802 | 0.659 | 0.61 | 0.818 | 0.39 | 0.731 | 0.262 | 0.471 |
| C[C@@H]1COCCN1c1cc(C2([S@](C)(=N)=O)CC2)nc(-c2ccnc3[nH]ccc23)n1 [AZD6738] + Nc1ccn([C@@H]2O[C@H](CO)[C@@H](O)C2(F)F)c(=O)n1 [Gemcitabine] (first compound max 10 µM, 7x7, partner max 0.3 µM) |  | 0.63 | 0.756 | 0.949 | 0.577 | 0.462 | 0.896 | 0.961 | 0.846 | 0.932 | 0.724 | 0.793 | 0.269 |  |
| Cc1cc2ncnn2cc1Nc1ncc2c(n1)n(C1CCOCC1)c(=O)n2C [AZD7648] + COc1cc([C@@H]2c3cc4c(cc3[C@@H](O[C@@H]3O[C@@H]5CO[C@@H](C)O[C@H]5[C@H](O)[C@H]3O)[C@H]3COC(=O)[C@H]23)OCO4)cc(OC)c1O [Etoposide] (first compound max 10 µM, 7x7, partner max 10 µM) | 0.122 | 0.223 | 0.36 | 0.906 | 0.199 | 0.28 | 0.787 | 0.842 | 0.768 | 0.945 | 0.555 | 0.398 | 0.258 | 0.878 |
| C[C@@H](Nc1cc(F)cc(F)c1)c1cc(C(=O)N(C)C)cc2c(=O)cc(N3CCOCC3)oc12 [AZD8186] + C1CN(CCC1(C(=O)N[C@@H](CCO)C2=CC=C(C=C2)Cl)N)C3=NC=NC4=C3C=CN4 [AZD5363] (first compound max 10 µM, 7x7, partner max 10 µM) | -0.0583 | 0.323 | 0.171 | 0.33 | 0.249 | 0.215 | 0.398 | 0.223 | 0.519 | 0.364 | 0.416 | 0.337 | 0.441 | 0.249 |
| C[C@@H](Nc1cc(F)cc(F)c1)c1cc(C(=O)N(C)C)cc2c(=O)cc(N3CCOCC3)oc12 [AZD8186] + CC(=O)c1c(C)c2cnc(Nc3ccc(N4CCNCC4)cn3)nc2n(C2CCCC2)c1=O [Palbociclib] (first compound max 10 µM, 7x7, partner max 10 µM) | 0.0976 | 0.347 | 0.201 | 0.262 | 0.466 | 0.311 | 0.38 | 0.295 | 0.568 | 0.492 | 0.454 | 0.235 | 0.336 | 0.601 |
| N#Cc1cnc(Nc2cc(NC[C@H]3CNCCO3)c(C(F)(F)F)cn2)cn1 [SRA737] + C=CCn1c(=O)c2cnc(Nc3ccc(N4CCN(C)CC4)cc3)nc2n1-c1cccc(C(C)(C)O)n1 [AZD1775] (first compound max 10 µM, partner max 1 µM) | 0.0595 | 0.613 | 0.685 |  | 0.495 | 0.311 | 0.927 | 0.926 | 0.876 | 0.804 | 0.648 | 0.853 | 0.266 | 0.597 |
| N#Cc1cnc(Nc2cc(NC[C@H]3CNCCO3)c(C(F)(F)F)cn2)cn1 [SRA737] + CCc1c2c(nc3ccc(O)cc13)-c1cc3c(c(=O)n1C2)COC(=O)[C@]3(O)CC [SN-38] (first compound max 10 µM, 7x7, partner max 0.3 µM) | -0.031 | 0.671 | 0.645 | 0.872 | 0.547 | 0.675 | 0.928 | 0.799 | 0.763 | 0.892 | 0.648 | 0.815 | 0.124 |  |
| N#Cc1cnc(Nc2cc(NC[C@H]3CNCCO3)c(C(F)(F)F)cn2)cn1 [SRA737] + Nc1ccn([C@@H]2O[C@H](CO)[C@@H](O)C2(F)F)c(=O)n1 [Gemcitabine] (first compound max 10 µM, 7x7, partner max 0.3 µM) |  | 0.644 | 0.617 | 0.916 | 0.61 | 0.373 | 0.87 | 0.945 | 0.772 | 0.852 | 0.745 | 0.827 | 0.312 |  |
